From ChEMBL document CHEMBL3259815, “Regioselective synthesis of polycyclic aza-oxa and aza-oxa-thia heteroarenes as Colo-205 and HepG2 carcinoma cells growth inhibitors” (Eur J Med Chem, 2014)
≈ marks a conversion by molar mass, not a printed value. Calls of active or inactive are those of the source. No cut-off for these calls is given here.

Tests used:
[1] = Cytotoxicity against rat IEC-6 cells assessed as cell viability up to 100 uM after 24 to 48 hrs by MTT assay; assay type: cell-based
COLO 205 [2] = assay: Cytotoxicity against human COLO205 cells after 48 hrs by MTT assay; assay type: functional, cell-based; details: for IC50: COLO 205, 48 h
COLO 205 [3] = assay: Cytotoxicity against human COLO205 cells after 24 hrs by MTT assay; assay type: functional, cell-based
COLO 205 [4] = assay: Induction of apoptosis in human COLO205 cells assessed as increase of p53 protein expression at IC50 after 48 hrs by Western blotting; assay type: functional, cell-based
COLO 205 [5] = assay: Induction of apoptosis in human COLO205 cells assessed as increase of p21 protein expression at IC50 after 48 hrs by Western blotting; assay type: functional, cell-based
COLO 205 [6] = assay: Induction of apoptosis in human COLO205 cells assessed as necrotic cells at IC50 after 48 hrs using Annexin-V-FITC staining by flow cytometer analysis (reference value: 0.5%); assay type: functional
COLO 205 [7] = assay: Induction of apoptosis in human COLO205 cells assessed as viable cells at IC50 after 48 hrs using Annexin-V-FITC staining by flow cytometer analysis (reference value: 65.8%); assay type: functional
COLO 205 [8] = assay: Induction of apoptosis in human COLO205 cells assessed as late apoptotic cells at IC50 after 48 hrs using Annexin-V-FITC staining by flow cytometer analysis (reference value: 6.5%); assay type: functional
COLO 205 [9] = assay: Induction of apoptosis in human COLO205 cells assessed as early apoptotic cells at IC50 after 48 hrs using Annexin-V-FITC staining by flow cytometer analysis (reference value: 0.3%); assay type: functional
COLO 205 [10] = assay: Induction of apoptosis in human COLO205 cells assessed as necrotic cells at IC50 after 24 hrs using Annexin-V-FITC staining by flow cytometer analysis relative to control; assay type: functional
COLO 205 [11] = assay: Induction of apoptosis in human COLO205 cells assessed as viable cells at IC50 after 24 hrs using Annexin-V-FITC staining by flow cytometer analysis (reference value: 75.5%); assay type: functional
COLO 205 [12] = assay: Induction of apoptosis in human COLO205 cells assessed as late apoptotic cells at IC50 after 24 hrs using Annexin-V-FITC staining by flow cytometer analysis (reference value: 0.07%); assay type: functional
COLO 205 [13] = assay: Induction of apoptosis in human COLO205 cells assessed as early apoptotic cells at IC50 after 24 hrs using Annexin-V-FITC staining by flow cytometer analysis (reference value: 0.07%); assay type: functional
COLO 205 [14] = assay: Induction of apoptosis in human COLO205 cells assessed as increase of Bax protein expression at IC50 after 48 hrs by Western blotting; assay type: functional, cell-based
COLO 205 [15] = assay: Induction of apoptosis in human COLO205 cells assessed as decrease of Bcl2 protein expression at IC50 after 48 hrs by Western blotting; assay type: functional, cell-based
COLO 205 [16] = assay: Induction of apoptosis in human COLO205 cells assessed as increase of cytochrome-c relase at IC50 after 48 hrs by Western blotting; assay type: functional, cell-based
COLO 205 [17] = assay: Induction of apoptosis in human COLO205 cells assessed as activation of caspase-9 at IC50 after 48 hrs by Western blotting; assay type: functional, cell-based
COLO 205 [18] = assay: Induction of apoptosis in human COLO205 cells assessed as cleaved procaspase-3 level at IC50 after 48 hrs by Western blotting; assay type: functional, cell-based
COLO 205 [19] = assay: Induction of apoptosis in human COLO205 cells assessed as activation of caspase-8 at IC50 after 48 hrs by Western blotting; assay type: functional, cell-based
COLO 205 [20] = assay: Induction of apoptosis in human COLO205 cells assessed as cleaved PARP level at IC50 after 48 hrs by Western blotting; assay type: functional, cell-based
HepG2 [21] = assay: Cytotoxicity against human HepG2 cells up to 100 uM after 24 to 48 hrs by MTT assay; assay type: functional, cell-based
HepG2 [22] = assay: Cytotoxicity against human HepG2 cells after 24 to 48 hrs by MTT assay; assay type: functional, cell-based
HepG2 [23] = assay: Cytotoxicity against human HepG2 cells after 48 hrs by MTT assay; assay type: functional, cell-based; details: HepG2, 48 h
HepG2 [24] = assay: Induction of apoptosis in human HepG2 cells assessed as necrotic cells at IC50 after 48 hrs using Annexin-V-FITC staining by flow cytometer analysis (reference value: 1.5%); assay type: functional
HepG2 [25] = assay: Induction of apoptosis in human HepG2 cells assessed as viable cells at IC50 after 48 hrs using Annexin-V-FITC staining by flow cytometer analysis (reference value: 97.3%); assay type: functional
HepG2 [26] = assay: Induction of apoptosis in human HepG2 cells assessed as late apoptotic cells at IC50 after 48 hrs using Annexin-V-FITC staining by flow cytometer analysis (reference value: 0.5%); assay type: functional
HepG2 [27] = assay: Induction of apoptosis in human HepG2 cells assessed as early apoptotic cells at IC50 after 48 hrs using Annexin-V-FITC staining by flow cytometer analysis (reference value: 0.6%); assay type: functional
HepG2 [28] = assay: Induction of apoptosis in human HepG2 cells assessed as increase of p53 and p21 protein expression at IC50 after 48 hrs by Western blotting; assay type: functional, cell-based
HepG2 [29] = assay: Induction of apoptosis in human HepG2 cells assessed as increase of Bax protein expression at IC50 after 48 hrs by Western blotting; assay type: functional, cell-based
HepG2 [30] = assay: Induction of apoptosis in human HepG2 cells assessed as decrease of Bcl2 protein expression at IC50 after 48 hrs by Western blotting; assay type: functional, cell-based
HepG2 [31] = assay: Induction of apoptosis in human HepG2 cells assessed as increase of cytochrome-c relase at IC50 after 48 hrs by Western blotting; assay type: functional, cell-based
HepG2 [32] = assay: Induction of apoptosis in human HepG2 cells assessed as increase of cleaved caspase 3/9 level at IC50 after 48 hrs by Western blotting; assay type: functional, cell-based
HepG2 [33] = assay: Induction of apoptosis in human HepG2 cells assessed as increase of cleaved PARP level at IC50 after 48 hrs by Western blotting; assay type: functional, cell-based
HeLa = assay: Cytotoxicity against human HeLa cells; assay type: functional
HepG2 [34] = assay: Cytotoxicity against human HepG2 cells; assay type: functional

SMILES | Activity [1] | Activity (COLO 205 [2]) | IC50 (COLO 205 [2]) | Activity (COLO 205 [3]) | Activity (COLO 205 [4]) | Activity (COLO 205 [5]) | Activity (COLO 205 [6]) | Activity (COLO 205 [7]) | Activity (COLO 205 [8]) | Activity (COLO 205 [9]) | Activity (COLO 205 [10]) | Activity (COLO 205 [11]) | Activity (COLO 205 [12]) | Activity (COLO 205 [13]) | Activity (COLO 205 [14]) | Activity (COLO 205 [15]) | Activity (COLO 205 [16]) | Activity (COLO 205 [17]) | Activity (COLO 205 [18]) | Activity (HepG2 [21]) | further results
Nc1n[nH]c2c3c(oc(=O)c12)-c1ccc2ccccc2c1OCC3 | Non-toxic | Dose-dependent effect | 20 µM | inactive | inactive | Active | 7% | 50.7% | 8.6% | 0.2% | 1.7% | 54.7% | 7.5% | 5.5% | Active | Active | Active | Active | Active | – | Activity (COLO 205 [19]): inactive; Activity (COLO 205 [20]): Active
COc1ccc2c(c1)-c1oc(=O)c3c(N)n[nH]c3c1CCO2 | Non-toxic | Dose-dependent effect | 40 µM | inactive | inactive | Active | 3% | 49.3% | 7.7% | 0.3% | 0.2% | 33.6% | 9% | 16.7% | Active | Active | Active | Active | Active | inactive | Activity (COLO 205 [19]): inactive; Activity (COLO 205 [20]): Active
Nc1n[nH]c2c3c(oc(=O)c12)-c1cc(Cl)ccc1SC3 | Non-toxic | – | – | – | – | – | – | – | – | – | – | – | – | – | – | – | – | – | – | inactive | –
Nc1n[nH]c2c1C(=O)NN=C1c3ccccc3OCCC12 (centres undefined) | Non-toxic | – | – | – | – | – | – | – | – | – | – | – | – | – | – | – | – | – | – | – | Activity (HepG2 [22]): Dose-dependent effect; IC50 (HepG2 [23]): 60 µM; Activity (HepG2 [24]): 6.7%; Activity (HepG2 [25]): 74.5%; Activity (HepG2 [26]): 7.6%; Activity (HepG2 [27]): 11.2%; Activity (HepG2 [28]): Active; Activity (HepG2 [29]): Active; Activity (HepG2 [30]): Active; Activity (HepG2 [31]): Active; Activity (HepG2 [32]): Active; Activity (HepG2 [33]): Active
CC(=O)c1c(O)c2ccc3ccccc3c2oc1=O | – | – | – | – | – | – | – | – | – | – | – | – | – | – | – | – | – | – | – | – | CC50 (HeLa): 6.87 µg/mL (≈ 27 µM); CC50 (HepG2 [34]): 6.87 µg/mL (≈ 27 µM)
Cc1cc2c(cc1C)-c1oc(=O)c3c(N)n[nH]c3c1CCO2 | Non-toxic | Dose-dependent effect | 60 µM | inactive | inactive | Active | 7.5% | 63.5% | 4% | 0.1% | 0.7% | 50.6% | 4.3% | 9.4% | Active | Active | Active | Active | Active | inactive | Activity (COLO 205 [19]): inactive; Activity (COLO 205 [20]): Active
Nc1n[nH]c2c3c(oc(=O)c12)-c1ccccc1OCC3 | Non-toxic | – | – | – | – | – | – | – | – | – | – | – | – | – | – | – | – | – | – | – | Activity (HepG2 [22]): Dose-dependent effect; IC50 (HepG2 [23]): 80 µM; Activity (HepG2 [24]): 4.6%; Activity (HepG2 [25]): 70.4%; Activity (HepG2 [26]): 9.2%; Activity (HepG2 [27]): 15.8%; Activity (HepG2 [28]): Active; Activity (HepG2 [29]): Active; Activity (HepG2 [30]): Active; Activity (HepG2 [31]): Active; Activity (HepG2 [32]): Active; Activity (HepG2 [33]): Active
Nc1n[nH]c2c3c(oc(=O)c12)-c1ccccc1SC3 | Non-toxic | – | – | – | – | – | – | – | – | – | – | – | – | – | – | – | – | – | – | inactive | –
Nc1n[nH]c2c1C(=O)NN=C1c3cc(Cl)ccc3SCC12 (centres undefined) | Non-toxic | – | – | – | – | – | – | – | – | – | – | – | – | – | – | – | – | – | – | inactive | –
